This is an account of results in patent publication US6693108B2, “Inhibitors of c-JUN N terminal kinases (JNK) and other protein kinases” (Vertex Pharmaceuticals Incorporated, priority 1999, dated 2004).

Molecules are shown by their SMILES. A value given as a limit tells only on which side of the number the result lay.

In this assay the target is T1, activated JNK3 (Homo sapiens, UniProt P53779).
T1 construct: One such construct encodes amino acid residues Ser40-Glu402 of JNK3α1 and is preceded by Met and Gly residues; Met-Gly (initiation Met plus Gly added to create the NcoI site) (N); made in house; host or cells: E. coli BL21 (DE3)
T1 sequence (P53779 40-402): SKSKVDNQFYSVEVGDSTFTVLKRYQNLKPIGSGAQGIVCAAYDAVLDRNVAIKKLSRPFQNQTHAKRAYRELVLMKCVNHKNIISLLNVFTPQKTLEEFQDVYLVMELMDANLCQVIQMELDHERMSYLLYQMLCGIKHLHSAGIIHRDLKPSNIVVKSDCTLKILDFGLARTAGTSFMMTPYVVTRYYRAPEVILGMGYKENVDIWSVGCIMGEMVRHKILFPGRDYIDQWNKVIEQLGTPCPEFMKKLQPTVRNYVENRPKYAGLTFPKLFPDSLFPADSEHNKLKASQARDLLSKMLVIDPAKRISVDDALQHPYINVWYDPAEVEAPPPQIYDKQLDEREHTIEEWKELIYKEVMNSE
Kind of assay: JNK3 inhibition, spectrophotometric coupled-enzyme assay. It is filed as biochemical. The note with it: read-out: Activity in the JNK3 Inhibition Assay (Ki rating). The source says: A BLAST search of the EST database using the published JNK3α1 cDNA as a query identified an EST clone (#632588) that contained the entire coding sequence for human JNK3α1. Polymerase chain reactions (PCR) using pfu polymerase (Strategene) were used to introduce restriction sites into the cDNA for cloning into the pET-15B expression vector at the NcoI and BamHI sites. The protein was expressed in E. coli. […] This truncation corresponds to Ser 2 of JNK1 and JNK2 proteins, and is preceded by a methionine (initiation) and a glycine residue. The glycine residue was added in order to introduce an NcoI site for cloning into the expression vector. In addition, systematic C-terminal truncations were performed by PCR to identify a construct that give rise to diffraction-quality crystals.
5 mg of JNK3 was diluted to 0.5 mg/ml in 50 mM HEPES buffer, pH 7.5, containing 100 mM NaCl, 5 mM DTT, 20 mM MgCl2 and 1 mM ATP. GST-MKK7(DD) was added at a molar ratio of 1:2.5 GST-MKK7:JNK3. After incubation for 30 minutes at 25° C., the reaction mixture was concentrated 5-fold by ultrafiltration in a Centriprep-30 (Amicon, Beverly, Mass.), diluted to 10 ml and an additional 1 mM ATP added. This procedure was repeated three times to remove ADP and replenish ATP. The final addition of ATP was 5 mM and the mixture incubated overnight at 4° C.
The activated JNK3/GST-MKK7(DD) reaction mixture was exchanged into 50 mM HEPES buffer, pH 7.5, containing 5 mM DTT and 5% glycerol (w/v) by dialysis or ultrafiltration. The reaction mixture was adjusted to 1.1 M potassium phosphate, pH 7.5, and purified by hydrophobic interaction chromatography (at 25° C.) using a Rainin Hydropore column. […] Activated JNK3 (i.e. doubly phosphorylated JNK3) was stored at −70° C. at 0.25-1 mg/ml.
Compounds were assayed for the inhibition of JNK3 by a spectrophotometric coupled-enzyme assay. In this assay, a fixed concentration of activated JNK3 (10 nM) was incubated with various concentrations of a potential inhibitor dissolved in DMSO for 10 minutes at 30° C. in a buffer containing 0.1 M HEPES buffer, pH 7.5, containing 10 mM MgCl2, 2.5 mM phosphoenolpyruvate, 200 μM NADH, 150 μg/mL pyruvate kinase, 50 μg/mL lactate dehydrogenase, and 200 μM EGF receptor peptide. […] The reaction was initiated by the addition of 10 μM ATP and the assay plate is inserted into the spectrophotometer's assay plate compartment that was maintained at 30° C. The decrease of absorbance at 340 nm was monitored as a function of time. The rate data as a function of inhibitor concentration was fitted to competitive inhibition kinetic model to determine the Ki.
Broadly, the Ki is the equilibrium dissociation constant of an inhibitor or competing ligand from its target. In the case of `Cc1onc(-c2cccc(F)c2)c1-c1ccnc(NC(=O)c2cccc(Cl)c2)n1` [IIIA-45], the Ki was 100 to 1000 nM.
In the case of `COc1cccc(C(=O)Nc2nccc(-c3c(-c4cccc(F)c4)noc3C)n2)c1` [IIIA-46], the Ki was in the range of 100 to 1000 nM.
Next, `COc1cc(OC)cc(C(=O)Nc2nccc(-c3c(-c4cccc(F)c4)noc3C)n2)c1` [IIIA-47]: 100 to 1000 nM; `Cc1cccc(C(=O)Nc2nccc(-c3c(-c4cccc(F)c4)noc3C)n2)c1` [IIIA-48]: 100 to 1000 nM; `Cc1onc(-c2cccc(F)c2)c1-c1ccnc(NC(=O)c2ccc(F)cc2)n1` [IIIA-49]: 100 to 1000 nM.
As to `Cc1ccc(C(=O)Nc2nccc(-c3c(-c4cccc(F)c4)noc3C)n2)cc1` [IIIA-50], the Ki was in the range of 100 to 1000 nM.
On to `Cc1onc(-c2cccc(F)c2)c1-c1ccnc(NC(=O)c2cccc(C#N)c2)n1` [IIIA-51], for which the Ki fell in the range of 100 to 1000 nM.
Next, `COc1cc(C(=O)Nc2nccc(-c3c(-c4cccc(F)c4)noc3C)n2)cc(OC)c1OC` [IIIA-52]: 100 to 1000 nM; `Cc1onc(-c2cccc(F)c2)c1-c1ccnc(NC(=O)c2ccc3ccccc3c2)n1` [IIIA-53]: 100 to 1000 nM; `Cc1onc(-c2ccccc2F)c1-c1ccnc(NC(=O)c2cccc(Cl)c2)n1` [IIIA-54]: 100 to 1000 nM.
Next, `COc1cccc(C(=O)Nc2nccc(-c3c(-c4ccccc4F)noc3C)n2)c1` [IIIA-55]: 100 to 1000 nM; `COc1cc(OC)cc(C(=O)Nc2nccc(-c3c(-c4ccccc4F)noc3C)n2)c1` [IIIA-56]: 100 to 1000 nM; `Cc1cccc(C(=O)Nc2nccc(-c3c(-c4ccccc4F)noc3C)n2)c1` [IIIA-57]: 100 to 1000 nM.
Next, `COc1ccc(C(=O)Nc2nccc(-c3c(-c4ccccc4F)noc3C)n2)cc1` [IIIA-58]: 100 to 1000 nM; `Cc1onc(-c2ccccc2F)c1-c1ccnc(NC(=O)c2ccc(F)cc2)n1` [IIIA-59]: 100 to 1000 nM.
For the compound `Cc1ccc(C(=O)Nc2nccc(-c3c(-c4ccccc4F)noc3C)n2)cc1` [IIIA-60], the inhibition constant Ki was in the range of 100 to 1000 nM.
With `Cc1onc(-c2ccccc2F)c1-c1ccnc(NC(=O)c2cccc(C#N)c2)n1` [IIIA-61], the inhibition constant Ki was in the range of 100 to 1000 nM.
The result for `COc1cc(C(=O)Nc2nccc(-c3c(-c4ccccc4F)noc3C)n2)cc(OC)c1OC` [IIIA-62] reads 100 to 1000 nM.
Regarding `Cc1onc(-c2ccccc2F)c1-c1ccnc(NC(=O)c2ccc3ccccc3c2)n1` [IIIA-63], the inhibition constant Ki was in the range of 100 to 1000 nM.
Regarding `Cc1onc(-c2c(F)cccc2F)c1-c1ccnc(NC(=O)c2cccc(Cl)c2)n1` [IIIA-64], the inhibition constant (Ki) lay within 100 to 1000 nM.
The result for `COc1cccc(C(=O)Nc2nccc(-c3c(-c4c(F)cccc4F)noc3C)n2)c1` [IIIA-65] reads 100 to 1000 nM; that for `COc1cc(OC)cc(C(=O)Nc2nccc(-c3c(-c4c(F)cccc4F)noc3C)n2)c1` [IIIA-66], 100 to 1000 nM.
As to `Cc1cccc(C(=O)Nc2nccc(-c3c(-c4c(F)cccc4F)noc3C)n2)c1` [IIIA-67], the Ki was 100 to 1000 nM.
On to `COc1ccc(C(=O)Nc2nccc(-c3c(-c4c(F)cccc4F)noc3C)n2)cc1` [IIIA-68], for which the Ki fell in the range of 100 to 1000 nM.
Next, `Cc1onc(-c2c(F)cccc2F)c1-c1ccnc(NC(=O)c2ccc(F)cc2)n1` [IIIA-69]: 100 to 1000 nM.
`Cc1ccc(C(=O)Nc2nccc(-c3c(-c4c(F)cccc4F)noc3C)n2)cc1` [IIIA-70]: the inhibitory constant (Ki) was 100 to 1000 nM.
`Cc1onc(-c2c(F)cccc2F)c1-c1ccnc(NC(=O)c2cccc(C#N)c2)n1` [IIIA-71]: the inhibition constant (Ki) is 100 to 1000 nM.
Next, `COc1cc(C(=O)Nc2nccc(-c3c(-c4c(F)cccc4F)noc3C)n2)cc(OC)c1OC` [IIIA-72]: 100 to 1000 nM.
The result for `Cc1onc(-c2c(F)cccc2F)c1-c1ccnc(NC(=O)c2ccc3ccccc3c2)n1` [IIIA-73] reads 100 to 1000 nM.
The result for `Cc1onc(-c2ccccc2)c1-c1ccnc(NC(=O)c2cccc([N+](=O)[O-])c2)n1` [IIIA-74] reads under 100 nM.
Consider `CC(=O)Nc1cccc(C(=O)Nc2nccc(-c3c(-c4ccccc4)noc3C)n2)c1` [IIIA-75], for which the Ki was 100 to 1000 nM.
On to `CC(=O)Nc1nccc(-c2c(-c3ccccc3)noc2C)n1` [XA-1], for which the Ki is 100 to 1000 nM.
Take `CC(=O)Nc1nccc(-c2c(-c3ccc(F)cc3)noc2C)n1` [XA-2]: the Ki was over 1000 nM.
Next, `Cc1onc(-c2ccccc2)c1-c1ccnc(NC(=O)C2CCCC2)n1` [XA-3]: 100 to 1000 nM; `Cc1onc(-c2ccccc2)c1-c1ccnc(NC(=O)CC(C)C)n1` [XA-4]: 100 to 1000 nM.
With `CCCC(=O)Nc1nccc(-c2c(-c3ccccc3)noc2C)n1` [XA-5], the Ki was in the range of 100 to 1000 nM.
`OCc1onc(-c2ccc(F)cc2)c1-c1ccnc(NC2CCCCC2)n1` [XIA-45, [4-(2-Cyclohexylamino-pyrimidin-4-yl)-3-(4-fluoro-phenyl)-isoxazol-5-yl]methanol]: the Ki was under 100 nM.
Turning to `OCc1onc(-c2ccc(F)cc2)c1-c1ccnc(NCCc2ccccn2)n1` [XIA-46], the Ki was under 100 nM.
Next, `COCc1onc(-c2ccc(F)cc2)c1-c1ccnc(NC2CCCCC2)n1` [XIA-47]: under 100 nM; `CCOCc1onc(-c2ccc(F)cc2)c1-c1ccnc(NC2CCCCC2)n1` [XIA-48]: under 100 nM; `COCCOCc1onc(-c2ccc(F)cc2)c1-c1ccnc(NC2CCCCC2)n1` [XIA-49]: under 100 nM.
The result for `Fc1ccc(-c2noc(COC3CCOC3)c2-c2ccnc(NC3CCCCC3)n2)cc1` (stereo not drawn) [XIA-50] reads under 100 nM; that for `O=S1(=O)CCC(OCc2onc(-c3ccc(F)cc3)c2-c2ccnc(NC3CCCCC3)n2)C1` (stereo not drawn) [XIA-51], under 100 nM; that for `Fc1ccc(-c2noc(COCc3ccccc3)c2-c2ccnc(NC3CCCCC3)n2)cc1` [XIA-52], under 100 nM.
The result for `Fc1ccc(-c2noc(COCc3ccccc3)c2-c2ccnc(NCCc3ccccn3)n2)cc1` [XIA-53] reads under 100 nM.
